Measurements as given in patent publication US6613772B1, “Substituted 2-aryl-4-amino-chinazolines, method for the production and use thereof as medicaments” (Aventis Pharma Deutschland GmbH, priority 1997, dated 2003).

Columns and labels:
[1] = biological target: T1, soluble guanylate cyclase (sGC) (Bos taurus, UniProt P16068+P19687); assay: Activation of the soluble guanylate cyclase (cGMP enzyme immunoassay); format: biochemical; conditions: test substance 50 μM; sGC isolated from bovine lung; [cGMP] test substance/[cGMP] control (basal activity, solvent); 37° C., 15 to 20 minutes
T1 construct: The sGC employed had been isolated from bovine lung; from tissue; host or cells: bovine lung
T1 sequence (P19687 1-691): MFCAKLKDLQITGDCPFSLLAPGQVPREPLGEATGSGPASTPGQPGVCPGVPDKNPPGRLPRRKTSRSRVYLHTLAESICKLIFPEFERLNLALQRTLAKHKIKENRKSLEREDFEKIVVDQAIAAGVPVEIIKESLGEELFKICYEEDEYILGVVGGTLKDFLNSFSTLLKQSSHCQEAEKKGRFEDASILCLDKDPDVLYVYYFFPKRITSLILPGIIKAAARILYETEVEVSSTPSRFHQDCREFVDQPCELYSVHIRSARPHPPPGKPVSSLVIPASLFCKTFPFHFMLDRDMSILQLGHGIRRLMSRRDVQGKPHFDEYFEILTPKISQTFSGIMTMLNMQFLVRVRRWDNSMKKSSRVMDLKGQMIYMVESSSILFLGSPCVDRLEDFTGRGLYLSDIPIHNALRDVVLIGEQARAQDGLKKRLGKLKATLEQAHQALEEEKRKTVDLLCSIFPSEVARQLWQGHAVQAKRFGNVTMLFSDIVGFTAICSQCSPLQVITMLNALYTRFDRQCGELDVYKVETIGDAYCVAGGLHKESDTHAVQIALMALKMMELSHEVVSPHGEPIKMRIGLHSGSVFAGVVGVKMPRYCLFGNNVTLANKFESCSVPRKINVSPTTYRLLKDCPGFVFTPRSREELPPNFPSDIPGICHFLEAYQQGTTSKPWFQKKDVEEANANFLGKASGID
T1 sequence (P16068 1-619): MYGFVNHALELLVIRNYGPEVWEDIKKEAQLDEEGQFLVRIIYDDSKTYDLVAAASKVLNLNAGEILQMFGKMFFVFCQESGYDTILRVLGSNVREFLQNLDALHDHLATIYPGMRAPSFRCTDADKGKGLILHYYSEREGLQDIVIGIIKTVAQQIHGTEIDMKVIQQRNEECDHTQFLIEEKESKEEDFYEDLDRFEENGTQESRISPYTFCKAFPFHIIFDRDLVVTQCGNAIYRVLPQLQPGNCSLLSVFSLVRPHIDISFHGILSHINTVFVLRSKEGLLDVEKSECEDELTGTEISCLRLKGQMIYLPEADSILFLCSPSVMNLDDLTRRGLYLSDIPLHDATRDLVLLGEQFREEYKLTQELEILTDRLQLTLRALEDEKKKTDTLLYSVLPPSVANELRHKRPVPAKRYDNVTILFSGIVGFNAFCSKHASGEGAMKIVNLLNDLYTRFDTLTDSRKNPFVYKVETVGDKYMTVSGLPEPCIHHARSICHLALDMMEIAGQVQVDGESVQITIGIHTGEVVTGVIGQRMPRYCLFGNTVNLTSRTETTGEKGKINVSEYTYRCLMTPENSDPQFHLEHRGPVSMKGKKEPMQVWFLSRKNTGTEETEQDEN
Description: Activation of the Soluble Guanylate Cyclase
The activation of the soluble guanylate cyclase (sGC), which catalyzes the conversion of guanosine triphosphate (GTP) into cyclic guanosine monophosphate (cGMP) and pyrophosphate, by the compounds according to the invention was quantified with the aid of an enzyme immunoassay (EIA) from Amersham. For this, the test substances were first incubated with sGC in microtiter plates and then the amount of resulting cGMP was determined. The sGC employed had been isolated from bovine lung (see Methods in Enzymology, Volume 195, p. 377). The test solutions (100 μl per well) contained 50 mM triethanolamine (TEA) buffer (pH 7.5), 3 mM MgCl2, 3 mM reduced glutathione (GSH), 0.1 mM GTP, 1 mM 3-isobutyl-1-methylxanthine (IBMX), suitably diluted enzyme solution and the test substance or, in the case of the control experiments, solvent. The test substances were dissolved in dimethyl sulfoxide (DMSO) and the solution was diluted with DMSO/water such that the final concentration of test substance in the test solution was 50 μM. The DMSO concentration in the test solution was 5% (v/v). The reaction was started by addition of the sGC. The reaction mix was incubated at 37° C. for 15 to 20 minutes and then stopped by ice-cooling and addition of the stop reagent (50 mM EDTA, pH 8.0). An aliquot of 50 μl was taken and employed for the determination of the cGMP content using the acetylation protocol of the Amersham cGMP EIA kit. The absorption of the samples was measured at 450 nm (reference wavelength 620 nm) in a microtiter plate reader. The cGMP concentration was determined by means of a calibration curve which was obtained under the same experimental conditions. The activation of the sGC by a test substance is indicated as n-fold stimulation of the basal enzyme activity which was found in the control experiments (with solvent instead of test substance calculated according to the formula
n-fold stimulation=[cGMP]test substance/[cGMP]control).

Compound | n-fold Stimulation [1] | melting point
COc1cc2c(N3CCN(CC(=O)N4CCOCC4)CC3)nc(-c3ccc(Cl)cc3)nc2c(OC)c1OC [Example 12, 2-(4-Chlorophenyl)-4-(4-(morpholinocarbonylmethyl)piperazino)-6,7,8-trimethoxyquinazoline] | 6 n-fold | 177 °C
COc1cc2nc(-c3ccc(Cl)cc3)nc(NCc3cccnc3)c2cc1OC [Example 28, 2-(4-Chlorophenyl)-4-((3-pyridylmethyl)amino)-6,7-dimethoxyquinazoline] | 5 n-fold | 232 °C
COc1cc2nc(-c3ccc(C)cc3)nc(NCCO)c2cc1OC [Example 37, 2-(4-Methylphenyl)-4-(2-hydroxyethylamino)-6,7-dimethoxyquinazoline] | 4 n-fold | 217 °C
COc1cc2c(N3CCN(CCO)CC3)nc(-c3ccc(Cl)cc3)nc2c(OC)c1OC [Example 13, 2-(4-Chlorophenyl)-4-(4-(2-hydroxyethyl)piperazino)-6,7,8-trimethoxyquinazoline] | 7 n-fold | 175 °C
COc1cc2nc(-c3ccc(Cl)cc3)nc(N3CCN(C)CC3)c2cc1OC.Cl [Example 17, 2-(4-Chlorophenyl)-4-(4-methylpiperazino)-6,7-dimethoxyquinazoline Hydrochloride] | 4 n-fold | 249 °C
COc1cc2nc(-c3ccc(Cl)cc3)nc(NCC(N)=O)c2cc1OC [Example 25, 2-(4-Chlorophenyl)-4-((aminocarbonylmethyl)amino)-6,7-dimethoxyquinazoline] | 3 n-fold | 291 °C
COc1cc2nc(-c3ccc(Cl)cc3)nc(N3CCN(CCO)CC3)c2cc1OC [Example 23, 2-(4-Chlorophenyl)-4-(4-(2-hydroxyethyl)piperazino)-6,7-dimethoxyquinazoline] | 4 n-fold | 163 °C
COc1cc2nc(-c3ccc(Cl)cc3)nc(NCCO)c2cc1OC [Example 20, 2-(4-Chlorophenyl)-4-(2-hydroxyethylamino)-6,7-dimethoxyquinazoline] | 5 n-fold | 236 °C
COc1cc2c(NCCN(C(C)C)C(C)C)nc(-c3ccc(Cl)cc3)nc2c(OC)c1OC.Cl [Example 11, 2-(4-Chlorophenyl)-4-(2-diisopropylaminoethylamino)-6,7,8-trimethoxyquinazoline Hydrochloride] | 6 n-fold | 189 °C
COc1cc2c(N3CCC(C(N)=O)CC3)nc(-c3ccc(Cl)cc3)nc2c(OC)c1OC [Example 67, 2-(4-Chlorophenyl)-4-(4-aminocarbonylpiperidino)-6,7,8-trimethoxyquinazoline] | 7 n-fold | 215 °C
COc1cc2nc(-c3ccc(Cl)cc3)nc(NCCCO)c2cc1OC [Example 32, 2-(4-Chlorophenyl)-4-(3-hydroxypropylamino)-6,7-dimethoxyquinazoline] | 5 n-fold | 187 °C
COCCNc1nc(-c2ccc(Cl)cc2)nc2cc(OC)c(OC)cc12 [Example 36, 2-(4-Chlorophenyl)-4-(2-methoxyethylamino)-6,7-dimethoxyquinazoline] | 5 n-fold | 178 °C
